Laboratory results reported in PubChem BioAssay (NCI).
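Tested at 5 concentrations; 48 h exposure; 96-well plates; endpoints linearly interpolated, else capped at highest concentration. TGI: concentration producing complete growth inhibition.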

How the values were obtained:
Assay in all cases: NCI tumour cell line growth inhibition, 48 h
SK-MEL-2 melanoma = test system: SK-MEL-2 melanoma
A498 renal = test system: A498 renal
LOX IMVI melanoma = test system: LOX IMVI melanoma
HOP-62 NSCLC = test system: HOP-62 NSCLC
HCT-15 colon = test system: HCT-15 colon
SK-MEL-28 melanoma = test system: SK-MEL-28 melanoma
SNB-75 CNS = test system: SNB-75 CNS
786-0 renal = test system: 786-0 renal
SR leukemia = test system: SR leukemia
OVCAR-8 ovarian = test system: OVCAR-8 ovarian

## COc1ccc(C2C(=O)c3c(OC)cc(OC)cc3OC2c2cccnc2)cc1 (stereo unspecified)
SK-MEL-2 melanoma
  TGI: > 100 µM
A498 renal
  TGI: > 100 µM
LOX IMVI melanoma
  TGI: > 100 µM
HOP-62 NSCLC
  TGI: > 100 µM
HCT-15 colon
  TGI: > 100 µM
SK-MEL-28 melanoma
  TGI: > 100 µM
SNB-75 CNS
  TGI: 84.1 µM
786-0 renal
  TGI: > 100 µM
SR leukemia
  TGI: > 100 µM
OVCAR-8 ovarian
  TGI: > 100 µM

## CC(C)=CC[C@]12CCN(C)[C@H]1N(S(=O)(=O)c1ccccc1)c1ccccc12
SK-MEL-2 melanoma
  TGI: 55.5 µM
A498 renal
  TGI: > 100 µM
LOX IMVI melanoma
  TGI: > 51.6 µM
HOP-62 NSCLC
  TGI: > 77.6 µM
HCT-15 colon
  TGI: > 100 µM
SK-MEL-28 melanoma
  TGI: > 100 µM
SNB-75 CNS
  TGI: > 100 µM
786-0 renal
  TGI: > 90.9 µM
SR leukemia
  TGI: > 100 µM
OVCAR-8 ovarian
  TGI: > 100 µM

## Cc1nc2cc(Nc3ccccc3C(=O)O)ccc2s1
SK-MEL-2 melanoma
  TGI: > 100 µM
A498 renal
  TGI: > 100 µM
LOX IMVI melanoma
  TGI: > 100 µM
HOP-62 NSCLC
  TGI: > 100 µM
HCT-15 colon
  TGI: > 100 µM
SK-MEL-28 melanoma
  TGI: > 100 µM
SNB-75 CNS
  TGI: > 100 µM
786-0 renal
  TGI: > 100 µM
SR leukemia
  TGI: > 100 µM
OVCAR-8 ovarian
  TGI: > 100 µM

## C(=Nc1ccc(-c2nc3ccccc3s2)cc1)c1ccc[nH]1
SK-MEL-2 melanoma
  TGI: 32 µM
A498 renal
  TGI: 36.5 µM
LOX IMVI melanoma
  TGI: 33.3 µM
HOP-62 NSCLC
  TGI: 27.6 µM
HCT-15 colon
  TGI: 38.7 µM
SK-MEL-28 melanoma
  TGI: 42.5 µM
SNB-75 CNS
  TGI: 55.7 µM
786-0 renal
  TGI: 52.4 µM
SR leukemia
  TGI: 49.5 µM
OVCAR-8 ovarian
  TGI: > 100 µM

## CN(CCc1ccccn1)C(=S)N/N=C(\c1ccccc1)c1ccccn1
SK-MEL-2 melanoma
  TGI: 4.35 µM
A498 renal
  TGI: 0.942 µM
LOX IMVI melanoma
  TGI: 2.04 µM
HOP-62 NSCLC
  TGI: 7.95 µM
HCT-15 colon
  TGI: 12.8 µM
SK-MEL-28 melanoma
  TGI: 6.01 µM
SNB-75 CNS
  TGI: 4.25 µM
786-0 renal
  TGI: 2.68 µM
SR leukemia
  TGI: 15.9 µM
OVCAR-8 ovarian
  TGI: 1.56 µM

## C[C@]12CC(c3ccccc3O1)C(C(=O)Nc1nc(C34CC5CC(CC(C5)C3)C4)cs1)C(=O)N2 (stereo partly specified)
SK-MEL-2 melanoma
  TGI: > 100 µM
A498 renal
  TGI: > 100 µM
LOX IMVI melanoma
  TGI: > 100 µM
HOP-62 NSCLC
  TGI: > 100 µM
HCT-15 colon
  TGI: > 100 µM
SK-MEL-28 melanoma
  TGI: > 100 µM
SNB-75 CNS
  TGI: > 100 µM
786-0 renal
  TGI: > 100 µM
SR leukemia
  TGI: > 100 µM
OVCAR-8 ovarian
  TGI: > 100 µM

## Cc1c2c(n(CC(c3ccccc3)c3ccccc3)c1C)NN=C(C#N)S2(=O)=O
SK-MEL-2 melanoma
  TGI: > 100 µM
A498 renal
  TGI: > 100 µM
LOX IMVI melanoma
  TGI: > 100 µM
HOP-62 NSCLC
  TGI: > 100 µM
HCT-15 colon
  TGI: > 100 µM
SK-MEL-28 melanoma
  TGI: > 100 µM
SNB-75 CNS
  TGI: > 100 µM
786-0 renal
  TGI: > 100 µM
SR leukemia
  TGI: > 100 µM
OVCAR-8 ovarian
  TGI: > 100 µM

## COC1(CC[C@@H](C)COC2OC(CO)C(O)C(O)C2O)O[C@H]2C[C@H]3[C@@H]4CC=C5C[C@@H](OC6OC(CO)C(O)C(OC7OC(CO)C(O)C(O)C7O)C6OC6OC(C)C(O)C(O)C6O)CC[C@]5(C)[C@H]4CC[C@]3(C)[C@H]2[C@@H]1C (stereo partly specified)
SK-MEL-2 melanoma
  TGI: 29.2 µM
A498 renal
  TGI: 26.9 µM
LOX IMVI melanoma
  TGI: 7.03 µM
HOP-62 NSCLC
  TGI: 24.3 µM
HCT-15 colon
  TGI: 11.8 µM
SK-MEL-28 melanoma
  TGI: 12.4 µM
SNB-75 CNS
  TGI: 11.2 µM
786-0 renal
  TGI: 8.33 µM
SR leukemia
  TGI: > 100 µM
OVCAR-8 ovarian
  TGI: 59.7 µM

## N/C1=C/C(=O)NC(=O)c2c(c3ccccc3oc2=O)C1
SK-MEL-2 melanoma
  TGI: > 100 µM
A498 renal
  TGI: > 100 µM
LOX IMVI melanoma
  TGI: > 100 µM
HOP-62 NSCLC
  TGI: > 100 µM
HCT-15 colon
  TGI: > 100 µM
SK-MEL-28 melanoma
  TGI: > 100 µM
SNB-75 CNS
  TGI: > 100 µM
786-0 renal
  TGI: > 100 µM
SR leukemia
  TGI: > 100 µM
OVCAR-8 ovarian
  TGI: > 100 µM

## CC(Oc1ccccc1)C(=O)NNC(=O)OC(C)(C)C (stereo unspecified)
SK-MEL-2 melanoma
  TGI: > 100 µM
A498 renal
  TGI: > 100 µM
LOX IMVI melanoma
  TGI: > 100 µM
HOP-62 NSCLC
  TGI: > 100 µM
HCT-15 colon
  TGI: > 100 µM
SK-MEL-28 melanoma
  TGI: > 100 µM
SNB-75 CNS
  TGI: > 100 µM
786-0 renal
  TGI: > 100 µM
SR leukemia
  TGI: > 100 µM
OVCAR-8 ovarian
  TGI: > 100 µM

## O=C1C(c2c(O)[nH]c3ccc(Br)cc23)=Nc2ccc(Br)cc21
SK-MEL-2 melanoma
  TGI: > 100 µM
A498 renal
  TGI: > 100 µM
LOX IMVI melanoma
  TGI: > 100 µM
HOP-62 NSCLC
  TGI: > 100 µM
HCT-15 colon
  TGI: > 100 µM
SK-MEL-28 melanoma
  TGI: > 100 µM
SNB-75 CNS
  TGI: 41.3 µM
786-0 renal
  TGI: 46.9 µM
SR leukemia
  TGI: > 100 µM
OVCAR-8 ovarian
  TGI: 81.3 µM

## C/C(=N\O)c1cccc[n+]1Cc1ccccc1
SK-MEL-2 melanoma
  TGI: > 100 µM
A498 renal
  TGI: > 100 µM
LOX IMVI melanoma
  TGI: > 100 µM
HOP-62 NSCLC
  TGI: > 100 µM
HCT-15 colon
  TGI: > 100 µM
SK-MEL-28 melanoma
  TGI: > 100 µM
SNB-75 CNS
  TGI: > 100 µM
786-0 renal
  TGI: > 100 µM
SR leukemia
  TGI: > 100 µM
OVCAR-8 ovarian
  TGI: > 100 µM

## O=c1[nH]cnc2c(COCCO)c[nH]c12
SK-MEL-2 melanoma
  TGI: > 100 µM
A498 renal
  TGI: > 100 µM
LOX IMVI melanoma
  TGI: > 100 µM
HOP-62 NSCLC
  TGI: > 100 µM
HCT-15 colon
  TGI: > 100 µM
SK-MEL-28 melanoma
  TGI: > 100 µM
SNB-75 CNS
  TGI: > 100 µM
786-0 renal
  TGI: > 100 µM
SR leukemia
  TGI: > 100 µM
OVCAR-8 ovarian
  TGI: > 100 µM

## CC1=CP(=O)(c2c(C(C)C)cc(C(C)C)cc2C(C)C)CCC1Cl (stereo unspecified)
SK-MEL-2 melanoma
  TGI: 31.4 µM
A498 renal
  TGI: 30.4 µM
LOX IMVI melanoma
  TGI: 47.2 µM
HOP-62 NSCLC
  TGI: 33.9 µM
HCT-15 colon
  TGI: 39.8 µM
SK-MEL-28 melanoma
  TGI: 35.1 µM
SNB-75 CNS
  TGI: 28.6 µM
786-0 renal
  TGI: 36.7 µM
SR leukemia
  TGI: 23 µM
OVCAR-8 ovarian
  TGI: 52.9 µM

## NCCN1C(=O)c2ccccc2C1c1ccc(Cl)cc1 (stereo unspecified)
SK-MEL-2 melanoma
  TGI: > 100 µM
A498 renal
  TGI: > 100 µM
LOX IMVI melanoma
  TGI: > 100 µM
HOP-62 NSCLC
  TGI: > 100 µM
HCT-15 colon
  TGI: > 100 µM
SK-MEL-28 melanoma
  TGI: > 100 µM
SNB-75 CNS
  TGI: > 100 µM
786-0 renal
  TGI: > 100 µM
SR leukemia
  TGI: > 100 µM
OVCAR-8 ovarian
  TGI: > 100 µM

## COc1cc(OC)c2c(c1)OC(c1cccnc1)C(c1ccccc1)C2=O (stereo unspecified)
SK-MEL-2 melanoma
  TGI: > 100 µM
A498 renal
  TGI: > 100 µM
LOX IMVI melanoma
  TGI: > 100 µM
HOP-62 NSCLC
  TGI: > 100 µM
HCT-15 colon
  TGI: > 100 µM
SK-MEL-28 melanoma
  TGI: > 100 µM
SNB-75 CNS
  TGI: > 100 µM
786-0 renal
  TGI: > 100 µM
SR leukemia
  TGI: > 100 µM
OVCAR-8 ovarian
  TGI: > 100 µM

## O=C(NO)NCCCl
SK-MEL-2 melanoma
  TGI: > 100 µM
A498 renal
  TGI: > 100 µM
LOX IMVI melanoma
  TGI: > 100 µM
HOP-62 NSCLC
  TGI: > 100 µM
HCT-15 colon
  TGI: > 100 µM
SNB-75 CNS
  TGI: > 100 µM
786-0 renal
  TGI: > 100 µM
SR leukemia
  TGI: > 100 µM
OVCAR-8 ovarian
  TGI: > 100 µM

## COc1cc2c(/C=C3/C(=O)N(C)c4ccc(O)cc43)c(Cl)[nH]c2cc1C
SK-MEL-2 melanoma
  TGI: 17.9 µM
A498 renal
  TGI: 5.39 µM
LOX IMVI melanoma
  TGI: 17.3 µM
HOP-62 NSCLC
  TGI: 3.94 µM
HCT-15 colon
  TGI: 12.8 µM
SK-MEL-28 melanoma
  TGI: 15.4 µM
SNB-75 CNS
  TGI: 20.8 µM
786-0 renal
  TGI: 15 µM
SR leukemia
  TGI: 1.23 µM
OVCAR-8 ovarian
  TGI: 15 µM

## CC1=C(C)CC2(C=C(C(C)(C)C)C(=O)C(C(C)(C)C)=C2)SC1
SK-MEL-2 melanoma
  TGI: 26 µM
A498 renal
  TGI: 35.4 µM
LOX IMVI melanoma
  TGI: 33.1 µM
HOP-62 NSCLC
  TGI: 37.9 µM
SNB-75 CNS
  TGI: 34.2 µM
786-0 renal
  TGI: 36 µM
SR leukemia
  TGI: > 100 µM
